{"source": "patent US20100247564A1", "about": "“METHODS AND COMPOSITIONS FOR THE USE OF SARGASSUM FUSIFORME FOR THE INHIBITION OF HIV-1 INFECTION” (priority 2007, published 2010)", "key": {"[1]": {"test_system": "primary CCR5-tropic isolate ADA", "experiment": "HIV-1 ADA infection of microglia, p24 ELISA", "settings": "Human immunodeficiency virus 1, Microglia, 72 h", "method": "Either macrophages (A) or microglia (B) were treated for 24 hours with 1 mg/ml S. fusiforme or with 10^−6 M ddC, infected with primary CCR5-tropic isolate ADA at 0.2 pg of p24/cell for 2 hours, washed 3 times, and returned to culture. At the indicated time points after infection, HIV-1 expression was monitored by p24 production in cell-free supernatants by ELISA and the percent inhibition was calculated and plotted on the Y-axis.\nNext, we treated fetal microglial cell cultures with either 1 mg/ml of S. fusiforme or 10^−6 M ddC and monitored infection kinetics by p24 production in cell-free supenatants at the indicated time points after infection (FIG. 5B)."}, "[2]": {"test_system": "HIV-1 (NL4-3) cell-to-cell fusion", "experiment": "Cell-to-cell infection and syncytia formation in co-culture (infected CEM/1G5; infected 1G5/GHOST)", "settings": "only 10^−6 M ddC"}, "[3]": {"test_system": "CXCR4 tropic HIV-1 (NL4-3)", "experiment": "HIV-1 (NL4-3) replication in 1G5 T cells, luciferase expression", "type": "cell-based"}, "[4]": {"test_system": "1G5 T cells", "experiment": "Viability of HIV-1 infected 1G5 T cells (MTT uptake, trypan blue exclusion)", "type": "cell-based", "settings": "10^−6 M ddC", "procedure": "FIGS. 2A-B show the dose response of HIV-1 inhibition and cell viability in T cells treated with S. fusiforme. […] The cells were washed 3 times and then returned to culture. On day 3 after infection, intracellular luciferase gene marker expression was measured from cell lysates adjusted to the same number of viable cells using an MTT assay (A).\nFIGS. 3A-B show the time course of HIV-1 inhibition and viability in T cells. […] Cell viability was determined by trypan blue exclusion assay (B).\nNext, we investigated the ability of S. fusiforme extracts to inhibit HIV-1 infection in 1G5 T cells. […] On day 3 after infection, equal numbers of viable cells were analyzed for intracellular luciferase expression and cell viability was measured using an MTT uptake assay (FIG. 2). HIV-1 inhibition was calculated by comparing treated and untreated cell cultures (both infected with HIV-1). […] Treatment with ddC blocked virus replication by over 98%. In parallel, we tested for MTT uptake by viable cells, which remained high regardless of the concentration of S. fusiforme extract used in treatment (FIG. 2B).\nInfection was monitored by luciferase expression at specific time points after infection (FIG. 3A). […] Treatment with 2 mg/ml of S. fusiforme inhibited infection by 77, 99, and 99% on days 3, 5, and 7, respectively (FIG. 3A). Inhibition by ddC was 99% at each time point tested. […]"}, "[5]": {"target": "T1, sCD4 (Homo sapiens, UniProt P01730)", "T1 construct": "soluble CD4 (sCD4) protein; purchased Progenics Pharmaceuticals", "experiment": "Dot blot binding of 14C-labeled PA to sCD4", "settings": "100 μM 14C-PA, increasing concentrations of sCD4", "procedure": "(§1) FIGS. 14A-C show the inhibition of HIV-1 fusion and CD4 interaction upon PA treatment. […] The percent of infected cells is indicated inside each quadrant. Cells were loaded with CCF2/AM dye and fusion was analyzed by multiparameter flow cytometry using a violet laser for excitation of CCF, and gated from 10,000 cells. […] The percent inhibition was plotted on the y-axis. […] The dot-blot membrane was washed and exposed to film, which was then scanned and the dot-blot total pixel mean value (intensity*mm^2) was quantified and plotted on the y-axis.\n(§2) To further test this hypothesis and reveal a possible physical interaction between PA and sCD4, we performed dot blot analysis with ^14C-labeled PA (^14C-PA) incubated together with increasing concentrations of sCD4, ubiquitin, or S100A12 proteins (FIG. 14C). PVDF membrane (BioRad) was pretreated with 100 μM PA for 1 hour at room temperature (RT). Indicated concentrations of each protein in 10 μl/well were run through the vacuum of the dot blot apparatus. The membrane was then incubated with 100 μM ^14C-labeled PA (^14C-PA) in 33% ethanol for 1 hour at room temperature, and then washed in 33% ethanol and exposed to film. Blot total pixel mean value intensity was quantified by Quantity One 4.6.1 software (BioRad)."}, "[6]": {"target": "ubiquitin (Homo sapiens, UniProt P0CG47)", "experiment": "Dot blot binding of 14C-labeled PA to ubiquitin", "settings": "100 μM 14C-PA", "procedure": "as §1, §2"}, "[7]": {"target": "T2, S100A12 (Homo sapiens, UniProt P80511)", "T2 sequence (P80511 1-92)": "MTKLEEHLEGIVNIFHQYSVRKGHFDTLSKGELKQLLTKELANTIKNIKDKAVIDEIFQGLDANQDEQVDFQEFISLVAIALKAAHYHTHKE", "experiment": "Dot blot binding of 14C-labeled PA to S100A12", "settings": "100 μM 14C-PA", "procedure": "as §1, §2"}, "[8]": {"test_system": "cell fusion (anti-HIV activity)", "experiment": "Inhibition of cell fusion by individual fatty acids", "type": "cell-based", "settings": "Human immunodeficiency virus 1, read-out: percentage of inhibition of cell fusion; for inhibition at 1 µg/mL: 1 μg/ml; for inhibition at 5 µg/mL: 5 μg/ml", "procedure": "Anti-HIV activity of the individual fatty acids was tested at four different concentrations. The values given in Table 1 represent the percentage of inhibition of cell fusion in the presence of each fatty acid."}, "[9]": {"target": "T3, recombinant HIV-1 RT (Human immunodeficiency virus type 1 group M subtype B, UniProt P04585)", "T3 construct": "recombinant HIV-1 RT; purchased Ambion", "experiment": "Cell-free fluorescent reverse transcriptase (RT) assay", "type": "biochemical", "settings": "2-fold serial dilutions, two units recombinant HIV-1 RT"}, "[10]": {"test_system": "BlaM-Vpr-X4-tropic NL4-3", "experiment": "microbe, parasite or virus in culture", "type": "cell-based, HIV-1"}, "[11]": {"target": "T1, sCD4", "experiment": "Saturation transfer difference NMR (STD-NMR) binding to sCD4", "settings": "NMR buffer with 20% d6-DMSO, room temperature", "procedure": "FIGS. 15A-E show in vitro binding experiments of sCD4 with PA. FIG. 15A is a homonuclear NMR spectrum of 100 μM PA in the NMR buffer (10 mM KPO4 buffer, pH 7.0, 20% d6-DMSO, and 80% D2O). […] Tryptophan fluorescence was measured using an excitation wavelength of 280 nm. An increase of PA causes a red shift of 2 nm and quenching of the tryptophan fluorescence of sCD4.\nWe used a one-dimensional saturation transfer difference NMR (STD-NMR) experiment to characterize the binding of PA to sCD4 in vitro. […]\nTo perform the STD-NMR experiment, we used commercially available sCD4 (200 μg, 4.4 nmol, Progenics Pharmaceuticals), which was exchanged into the NMR buffer (160 μl of D2O and 40 μl d6-DMSO, containing 10 mM KPO4 buffer, pH 7.0). […] The NMR data were processed and analyzed using Topspin 2.0 (Bruker).\nDuring the STD-NMR experiment, we titrated increasing concentrations of PA into sCD4 solution, and observed PA binding to sCD4, as shown by an increase in the intensity of the ligand STD-NMR signal (FIGS. 15A and 15B). The intensity of the STD signal was quantified by calculating the difference between the intensity of one signal in the off-resonance NMR spectrum, or reference NMR spectrum (I0), and the intensity of a signal in the on-resonance NMR spectrum (Isat) for various concentrations of the ligand (FIG. 15C). […]"}, "[12]": {"settings": "Human immunodeficiency virus 1, NL43, SUP-T1, read-out: inhibition of fusion"}}, "note": "Like-named read-outs stand apart in the source and are kept apart here."}
{"smiles": "Nc1ccn([C@H]2CC[C@@H](CO)O2)c(=O)n1", "note": "[ddC, 2′,3′-didoxycytidine]", "values": [{"measurement": "inhibition at 1 µM", "setting": "[1]; read-out: virus inhibition, 10^−6 M ddC, after day 3", "value": "> 90", "unit": "%"}, {"measurement": "inhibition at 1 µM", "setting": "[1]; read-out: virus inhibition, 10^−6 M ddC, day 3", "value": 72, "unit": "%"}, {"measurement": "inhibition of luciferase expression", "setting": "[2]", "value": 69, "unit": "%"}, {"measurement": "virus replication blocked", "setting": "[3]; 10^−6 M ddC, day 3 after infection", "value": "over 98%"}, {"measurement": "inhibition at 1 µM", "setting": "[3]; Human immunodeficiency virus 1, NL43, T-cell, read-out: inhibition of infection", "value": 99, "unit": "%"}, {"measurement": "luciferase expression", "setting": "[3]; ddC control culture, mock-treated 29,601 RLU", "value": 587, "unit": "RLU"}, {"measurement": "cell viability compared with S. fusiforme-treated cultures", "setting": "[4]", "value": "similar"}]}
{"smiles": "CCCCCCCCCCCCCCCC(=O)O", "note": "[^14C-PA]", "values": [{"measurement": "binding to sCD4 (dot blot)", "setting": "[5]", "value": "dose-dependent"}, {"measurement": "binding to ubiquitin (dot blot)", "setting": "[6]", "value": "did not bind"}, {"measurement": "binding to S100A12 (dot blot)", "setting": "[7]", "value": "did not bind"}]}
{"smiles": "CCCCC/C=C\\C/C=C\\CCCCCCCC(=O)O", "note": "[Linoleic acid, linoleic acid]", "values": [{"measurement": "inhibition at 1 µg/mL", "setting": "[8]", "value": 0, "unit": "%"}, {"measurement": "inhibition at 5 µg/mL", "setting": "[8]", "value": 0, "unit": "%"}, {"measurement": "RT inhibition (in words)", "setting": "[9]", "value": "potent RT inhibitors"}]}
{"smiles": "c1cc(CN2CCCNCCNCCCNCC2)ccc1CN1CCCNCCNCCCNCC1", "note": "[AMD3100, reference compound]", "values": [{"measurement": "fusion positive cells", "setting": "[10]; 250 nM AMD3100, 51.5% without treatment", "value": 28.7, "unit": "%"}, {"measurement": "virus-positive cells", "setting": "[10]; AMD3100 in the PA experiment, 37.6% untreated", "value": 2.8, "unit": "%"}, {"measurement": "inhibition at 0.25 µM", "setting": "[10]; [12]", "value": 44.5, "unit": "%"}, {"measurement": "inhibition at 0.5 µM", "setting": "[10]; [12]", "value": 80, "unit": "%"}]}
{"smiles": "CCCCCCCC/C=C\\CCCCCCCC(=O)O", "note": "[Oleic acid, oleic acid]", "values": [{"measurement": "inhibition at 1 µg/mL", "setting": "[8]", "value": 0, "unit": "%"}, {"measurement": "inhibition at 5 µg/mL", "setting": "[8]", "value": 0, "unit": "%"}, {"measurement": "RT inhibition (in words)", "setting": "[9]", "value": "potent RT inhibitors"}]}
{"smiles": "CCCCCCCCCCCCCC(=O)O", "note": "[Myristic acid, myristic acid]", "values": [{"measurement": "inhibition at 1 µg/mL", "setting": "[8]", "value": 8.8, "unit": "%"}, {"measurement": "inhibition at 5 µg/mL", "setting": "[8]", "value": 26.4, "unit": "%"}, {"measurement": "STD-NMR signal on titration into sCD4 solution", "setting": "[11]", "value": "No STD-NMR signal was observed"}]}
